The values below come from publication doi:10.1101/2021.08.24.457553v1 (biorxiv, 2021).

Where only a bound is given, the exact number is not on record here.

For series [1], the target named is T1, PfPKG (Plasmodium falciparum, UniProt Q8I719). The series is described as follows: in vitro PfPKG kinase inhibition assay. The class given is biochemical. Particulars: […] compound.
For series [2] the following is noted: liver microsomes.
Another series concerns P. berghei. The series is described as follows: microbe, parasite or virus in culture. Particulars: Plasmodium berghei, HepG2, read-out: % inhibition.
For series [3] the following is noted: liver microsomes. The source holds these as a separate data set.
The target of the next series is 2C9 (Homo sapiens, UniProt P11712). Put plainly: biochemical.
Series [4] can be described thus: in vitro. Particulars: monkey, primary hepatocytes. Also noted: species or system primary non-human primate hepatocytes.
Series [5] addresses T1, PfPKG. The series is described as follows: in vitro PfPKG kinase inhibition assay. The class given is biochemical.
Series [6] is described as follows: in vitro. Also noted: species or system primary non-human primate hepatocytes. Particulars: monkey, primary hepatocytes. The source holds these as a separate data set.
The target of the next series is 2D6 (Homo sapiens, UniProt P10635). Put plainly: biochemical.
A further series has as its target hERG (Homo sapiens, UniProt Q12809). Particulars: HEK293, 10 µM.
The target in another series is CYP3A4 (Homo sapiens, UniProt P08684). The series is described as follows: in vitro CYP3A4 inhibition. The class given is cell-based.
For series [7], the target named is T1, PfPKG. Put plainly: in vitro PfPKG kinase inhibition assay. The class given is biochemical. Particulars: […] compound. This is another data set of the same source.

T1 sequence (Q8I719 whole entry): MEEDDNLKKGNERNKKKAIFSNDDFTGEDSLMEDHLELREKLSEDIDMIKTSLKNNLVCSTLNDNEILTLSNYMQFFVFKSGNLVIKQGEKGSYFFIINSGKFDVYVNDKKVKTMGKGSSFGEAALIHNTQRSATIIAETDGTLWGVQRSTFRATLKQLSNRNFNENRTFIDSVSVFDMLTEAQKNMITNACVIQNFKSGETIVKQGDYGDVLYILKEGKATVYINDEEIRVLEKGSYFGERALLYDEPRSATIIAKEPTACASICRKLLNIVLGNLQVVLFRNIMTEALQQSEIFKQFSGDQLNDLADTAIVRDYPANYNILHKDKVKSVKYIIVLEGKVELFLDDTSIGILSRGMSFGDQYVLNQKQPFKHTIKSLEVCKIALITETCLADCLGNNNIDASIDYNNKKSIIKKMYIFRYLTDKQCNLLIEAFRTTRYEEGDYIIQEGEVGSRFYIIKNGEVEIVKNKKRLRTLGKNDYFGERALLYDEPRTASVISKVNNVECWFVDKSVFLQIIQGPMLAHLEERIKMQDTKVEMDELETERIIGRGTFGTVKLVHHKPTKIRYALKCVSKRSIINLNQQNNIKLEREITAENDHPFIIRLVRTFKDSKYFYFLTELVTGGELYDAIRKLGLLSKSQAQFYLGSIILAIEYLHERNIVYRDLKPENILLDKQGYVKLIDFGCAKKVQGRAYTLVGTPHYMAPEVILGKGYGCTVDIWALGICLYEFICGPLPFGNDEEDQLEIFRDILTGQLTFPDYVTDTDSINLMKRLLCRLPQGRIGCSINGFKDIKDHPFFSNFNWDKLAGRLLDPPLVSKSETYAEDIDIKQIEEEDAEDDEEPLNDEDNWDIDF
CYP3A4, sequence (P08684 2-503): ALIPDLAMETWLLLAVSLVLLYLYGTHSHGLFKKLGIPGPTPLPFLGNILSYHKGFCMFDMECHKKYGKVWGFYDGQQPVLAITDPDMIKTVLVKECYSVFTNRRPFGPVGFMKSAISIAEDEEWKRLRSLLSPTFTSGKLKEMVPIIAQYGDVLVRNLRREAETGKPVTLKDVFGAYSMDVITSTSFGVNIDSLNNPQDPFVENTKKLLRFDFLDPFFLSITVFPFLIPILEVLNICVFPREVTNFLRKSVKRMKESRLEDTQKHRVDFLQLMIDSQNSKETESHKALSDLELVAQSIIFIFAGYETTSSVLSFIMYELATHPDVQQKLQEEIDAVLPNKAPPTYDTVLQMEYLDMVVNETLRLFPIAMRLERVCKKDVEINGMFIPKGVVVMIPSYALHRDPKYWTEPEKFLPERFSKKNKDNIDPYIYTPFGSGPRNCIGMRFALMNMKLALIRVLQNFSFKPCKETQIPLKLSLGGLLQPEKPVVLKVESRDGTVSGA
hERG, sequence (Q12809 whole entry): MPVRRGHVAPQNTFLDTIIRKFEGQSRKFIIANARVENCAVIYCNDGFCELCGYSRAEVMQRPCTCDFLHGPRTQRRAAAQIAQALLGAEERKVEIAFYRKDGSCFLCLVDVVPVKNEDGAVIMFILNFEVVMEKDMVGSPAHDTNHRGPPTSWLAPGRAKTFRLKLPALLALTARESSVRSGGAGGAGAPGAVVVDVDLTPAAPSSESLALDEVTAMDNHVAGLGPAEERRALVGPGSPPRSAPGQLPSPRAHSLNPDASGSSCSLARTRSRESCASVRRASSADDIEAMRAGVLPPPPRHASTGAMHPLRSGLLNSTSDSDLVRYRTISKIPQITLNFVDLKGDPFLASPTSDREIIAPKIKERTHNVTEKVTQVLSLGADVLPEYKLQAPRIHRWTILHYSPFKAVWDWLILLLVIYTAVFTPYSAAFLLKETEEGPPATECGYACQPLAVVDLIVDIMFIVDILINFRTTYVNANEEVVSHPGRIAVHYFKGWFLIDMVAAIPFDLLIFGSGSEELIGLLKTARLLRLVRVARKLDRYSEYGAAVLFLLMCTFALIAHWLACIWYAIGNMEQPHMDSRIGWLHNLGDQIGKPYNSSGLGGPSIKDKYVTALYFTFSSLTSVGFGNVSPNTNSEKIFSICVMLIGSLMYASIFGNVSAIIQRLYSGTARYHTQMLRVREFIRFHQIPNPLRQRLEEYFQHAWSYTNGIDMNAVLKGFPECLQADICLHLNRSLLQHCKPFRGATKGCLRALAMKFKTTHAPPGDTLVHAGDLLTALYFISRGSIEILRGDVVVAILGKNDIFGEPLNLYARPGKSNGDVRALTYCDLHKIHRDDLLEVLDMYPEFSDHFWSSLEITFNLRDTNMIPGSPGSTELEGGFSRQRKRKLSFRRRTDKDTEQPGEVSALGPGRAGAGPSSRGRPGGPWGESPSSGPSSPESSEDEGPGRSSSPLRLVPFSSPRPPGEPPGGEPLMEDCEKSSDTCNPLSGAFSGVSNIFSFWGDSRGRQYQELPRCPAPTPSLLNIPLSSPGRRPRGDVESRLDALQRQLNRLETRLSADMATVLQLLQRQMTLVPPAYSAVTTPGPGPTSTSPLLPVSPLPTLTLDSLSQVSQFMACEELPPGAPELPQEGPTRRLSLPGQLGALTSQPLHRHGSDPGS
2D6, sequence (P10635 whole entry): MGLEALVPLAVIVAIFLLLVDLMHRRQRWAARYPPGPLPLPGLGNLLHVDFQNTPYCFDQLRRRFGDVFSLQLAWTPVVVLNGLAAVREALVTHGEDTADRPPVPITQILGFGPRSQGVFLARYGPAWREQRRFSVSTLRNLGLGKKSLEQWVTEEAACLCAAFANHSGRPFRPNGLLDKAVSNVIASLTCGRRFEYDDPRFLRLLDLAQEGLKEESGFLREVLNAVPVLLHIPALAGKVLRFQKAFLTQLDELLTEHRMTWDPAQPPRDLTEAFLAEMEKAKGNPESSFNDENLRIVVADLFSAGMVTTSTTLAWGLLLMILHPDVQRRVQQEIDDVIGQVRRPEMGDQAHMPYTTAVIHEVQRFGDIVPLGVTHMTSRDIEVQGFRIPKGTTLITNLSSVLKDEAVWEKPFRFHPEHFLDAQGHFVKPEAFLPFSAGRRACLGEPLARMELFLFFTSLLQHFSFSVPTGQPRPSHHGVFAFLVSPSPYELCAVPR
2C9, sequence (P11712 whole entry): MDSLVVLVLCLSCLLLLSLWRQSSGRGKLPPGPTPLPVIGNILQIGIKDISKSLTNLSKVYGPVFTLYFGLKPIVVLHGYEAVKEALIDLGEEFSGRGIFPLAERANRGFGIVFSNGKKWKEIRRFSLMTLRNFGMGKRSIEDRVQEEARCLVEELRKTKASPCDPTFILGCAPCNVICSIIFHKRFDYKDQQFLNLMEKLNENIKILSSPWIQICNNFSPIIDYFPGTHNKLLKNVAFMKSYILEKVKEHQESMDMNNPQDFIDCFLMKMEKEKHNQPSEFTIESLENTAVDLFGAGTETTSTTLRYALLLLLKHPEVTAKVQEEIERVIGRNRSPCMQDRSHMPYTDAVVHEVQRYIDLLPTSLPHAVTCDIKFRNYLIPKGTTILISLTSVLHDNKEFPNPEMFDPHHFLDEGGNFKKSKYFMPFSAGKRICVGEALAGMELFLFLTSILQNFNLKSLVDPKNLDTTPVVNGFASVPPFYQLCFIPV

Turning to `Cc1cn(-c2ccnc(NC3CCCN(C(=O)c4nccs4)C3)n2)c(-c2ccccc2)n1` (racemic) [10d], the “% inh @ 1 uM” value on PfPKG [1] came out at 4%.
For the compound `Cc1cn(-c2ccnc(N[C@@H]3CCN(C(=O)c4nccs4)C3)n2)c(-c2ccccc2)n1` [10a], the “MLM t1/2” value in series [2] is listed as under 2 min. The inhibition at 2 µM with P. berghei was determined as 78 ± 20%. For the same compound, the inhibition at 10 µM with P. berghei worked out at 89 ± 7%. The “HLM t1/2” value in series [3] was under 2 min. Also, the IC50 was over 10000 nM against 2C9, 320 nM at PfPKG [5] and over 10000 nM at 2D6. Also, the CC50 at 96 h in “in vitro [4]” and in the series “in vitro [6]” was over 20000 nM in each case.
With `Cc1cn(-c2ccnc(N[C@@H]3CCN(C(=O)c4ccn(C)n4)C3)n2)c(-c2ccccc2)n1` [10b], half-maximal inhibition against PfPKG [5] (IC50) was put at 1000 nM.
Turning to `Cc1cn(-c2ccnc(N[C@H]3CCN(C(=O)c4nccs4)C3)n2)c(-c2ccccc2)n1` [10c], the “% inh @ 1 uM” value at PfPKG [1] is reported as 4%.
Regarding `O=C(c1nccs1)N1CC[C@@H](Nc2nccc(-n3cc(C4CC4)nc3-c3ccccc3)n2)C1` [14a], the “hERG % inh. @ 10 uM” value at hERG is 1%. Besides, the “MLM t1/2” value in series [2] is under 2 min. In addition, in series [3], the “HLM t1/2” value was 4.8 min. Also, the half-inhibitory concentration (IC50) against PfPKG [5] is 100 nM; on CYP3A4, under 300 nM.
As for `O=C(c1nccs1)N1CC[C@@H](Nc2nccc(-n3cc(C4CC4)nc3-c3cccc(Cl)c3)n2)C1` [14b], on hERG, the “hERG % inh. @ 10 uM” value is on record as 9%. Also, the “MLM t1/2” value in series [2] was under 2 min. The inhibition at 2 µM in the series with P. berghei was determined as 94 ± 3%. Further, the inhibition at 10 µM with P. berghei was determined as 93 ± 3%. Also, the “HLM t1/2” value in series [3] was 3.7 min. Also, the CC50 at 96 h in “in vitro [4]” and in “in vitro [6]” was over 20000 nM in each case. The 50% inhibitory concentration (IC50) against PfPKG [5] is 60 nM; against CYP3A4 it was under 300 nM.
`COc1cccc(-c2nc(C)cn2-c2ccnc(N[C@@H]3CCN(C(=O)c4nccs4)C3)n2)c1` [18a] came in with an IC50 at PfPKG [5] of 86 nM. That is a double-digit nanomolar value.
For `Cc1cn(-c2ccnc(N[C@@H]3CCN(C(=O)c4nccs4)C3)n2)c(-c2ccccc2Cl)n1` [18b], the “% inhib @ 1 uM” value at PfPKG [7] is given as 47%.
In turn, `Cc1cn(-c2ccnc(N[C@@H]3CCN(C(=O)c4nccs4)C3)n2)c(-c2ccc(Cl)cc2)n1` [18c] returned an IC50 on PfPKG [5] of 1160 nM.
On the same count and under the same terms, the figure for `Cc1cn(-c2ccnc(N[C@@H]3CCN(C(=O)c4nccs4)C3)n2)c(-c2cccc(OC(F)(F)F)c2)n1` [18d] is 150 nM.
